Holding throughout (conditions): method of the corresponding examples
For test [1], the system named is human promyelocytic leukemia cells HL-60. As to the kind of experiment: MTT cell growth inhibition, optically active cyclopentenones. It is filed as cell-based. The method, then: An ethanolic solution (1 mg/ml) of each of the (-)- and (+) -cyclopentenoneobtained in Example 16 was diluted with a 75% aqueous ethanol solution to an extent of 2, 4, 8, 16, 32, 64, 128, 256, 512, 1024 and 2048-fold and each 5 μl of them was charged in each of the wells of a 96-well microtiter plate followed by drying with air. An RPMI 1640 medium (100 μl) containing 10% fetal bovine serum containing 5000 human promyelocytic leukemia cells HL-60 (ATCC CCL-240) was added to each well and incubated at 37° C. for 48 hours in the presence of 5% of carbon dioxide gas. After observing the morphology of the cells under an optical microscope, 10 μl of phosphate buffered saline containing 5 mg/ml of 3-(4,5-dimethylthiazol-2-yl)-2,5-diphenyltetrazolium bromide (MTT; manufactured by Sigma) thereto, an incubation was conducted for additional four hours and the growth state of the cells was observed under a microscope. Further, 100 μl of 2-propanol containing 0.04N HCl was added thereto followed by well stirring and an absorbance at 590 nm was measured and defined as the degree of cell growth.

Test [2] has as its system HL-60 cells. As to the kind of experiment: cancer cell differentiation (Wright-Giemsa stain). The class given is cell-based, human. Here is the method:
(2) To HL-60 cells was added 10^-4 μg/ml of the cyclopentenone and an incubation by the same manner as in Example 15-(1) was conducted for three days. […] The result was that the differentiated cells were around 10% in the control where no cyclopentenone was added while, in the fractions to which the cyclopentenone was added, 50% or more cells were differentiated to monocyte- or to macrophage-like cells.
The result was that the differentiated cells were around 10% in the control where no cyclopentenone was added while, in the fraction to which 0.005 μg/ml of the cyclopentenone was added, 25% or more cells were differentiated to mature bone marrow cells.

Test [3] deals with HL-60 cells. The test can be described thus: apoptosis-inducing activity to HL-60 cells. It is filed as cell-based, human. Here is the method:
(2) The cyclopentenone prepared in Example 2-(1) was used for preparing aqueous solutions of the cyclopentenone in the concentrations of 2.86 mM, 955 μM, 318 μM, 106 μM, 35 μM, 12 μM and […]. Then said heat-treated substance was adjusted to pH 7.0 with NaOH and the apoptosis-inducing activity to HL-60 cells was measured as follows.
To 1.35 ml of this suspension was added 0.15 ml of the above-mentioned cyclopentenone solution and the mixture was incubated at […] for 20 hours in the presence of 5% of carbon dioxide gas.

The nature of test [4]: antibacterial activity of optically active cyclopentenones. The class given is cell-based.

For `O=C1C=C[C@@H](O)[C@@H]1O` (single isomer, unassigned) [(-)-trans-cyclopentenone, (-)-trans-4,5-dihydroxy-2-cyclopenten-1-one], in test [1], the cell growth inhibition entry is reported as “cell growth inhibiting activity”. Further, the “cancer cell differentiation inducing activity” value in the test on HL-60 cells [2] is “cancer cell differentiation inducing activity”. Moreover, the apoptosis inducing activity entry with HL-60 cells [3] is “apoptosis inducing activity”. For the same molecule, the antibacterial activity result in test [4] is listed as “antibacterial activity”.
Regarding `O=C1C=CC(O)C1O` (single isomer, unassigned; (-)) [(-)-cis-cyclopentenone], the cell growth inhibition entry in test [1] is “cell growth inhibiting activity”. Also, in the test on HL-60 cells [2], the “cancer cell differentiation inducing activity” value is “cancer cell differentiation inducing activity”. The apoptosis inducing activity entry with HL-60 cells [3] was “apoptosis inducing activity”. Further, the antibacterial activity entry in test [4] is recorded as “antibacterial activity”.
In the same order, the values of `O=C1C=C[C@@H](O)[C@@H]1O` (single isomer, unassigned) [(+)-trans-cyclopentenone, (+)-trans-4,5-dihydroxy-2-cyclopenten-1-one] are “cell growth inhibiting activity”, “cancer cell differentiation inducing activity”, “apoptosis inducing activity” and “antibacterial activity”.
On the same counts, the results for `O=C1C=CC(O)C1O` (single isomer, unassigned; (+)) [(+)-cis-cyclopentenone] are “cell growth inhibiting activity”, “cancer cell differentiation inducing activity”, “apoptosis inducing activity” and “antibacterial activity”.

The values above are taken from patent publication US6087401A, “Cyclopentenones, process for preparing the same, and the use thereof” (Takara Shuzo Co., Ltd., priority 1996, dated 2000).
